Biological target: TDP-43 1-260 (Homo sapiens, UniProt Q13148)
Experiment: TDP-43 alpha-screen assay with bt-TAR32
Format: binding
Conditions: for IC50: bt-TAR32 0.125 nM, 3 h at room temperature, read-out: Activity (μM) in the TDP-43-DNA alpha-screen assay
Description: Alpha-screen assay. […] Briefly, assays contained TDP-43 1-260 (15 ng/mL, 0.27 nM), 10 mg/mL of both streptavidin donor beads and anti-GST acceptor beads with various concentrations of bt-TAR32 (˜18 to +14 in the HIV1 LTR) and test compound in a final volume of 20 mL of 25 mM Tris, 0.1% CHAPS, pH 7.4 in white, opaque low volume 384-well plates. After 3 h incubation at room temperature, the AlphaScreen signal was measured using a Synergy 2 plate reader (Biotek, Winooski, VT). […] Nonspecific binding was determined in the presence of 10 mM bt-TDP43 and was less than 10% of total binding. IC50 values were obtained from nonlinear regression fits of the data to a one-site binding model using Graph Pad Prism, version 5.0 (GraphPad Software, San Diego, CA). Comparison of competitive inhibition and mixed type inhibition models were evaluated using the F-test on global fits of the data also in Graph Pad Prism, version 5.0.

Sequence of TDP-43 1-260 (Q13148 1-260): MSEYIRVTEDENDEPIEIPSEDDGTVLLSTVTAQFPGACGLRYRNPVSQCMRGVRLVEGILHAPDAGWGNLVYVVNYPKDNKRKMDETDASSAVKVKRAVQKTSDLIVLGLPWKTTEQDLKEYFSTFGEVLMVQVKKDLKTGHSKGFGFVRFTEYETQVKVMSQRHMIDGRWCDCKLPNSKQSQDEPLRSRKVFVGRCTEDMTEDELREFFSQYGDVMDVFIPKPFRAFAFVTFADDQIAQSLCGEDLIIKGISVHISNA

Row | Molecule | IC50 [µM] | also measured
1 | 6-(4-(2-(pyrrolidin-1-yl)ethoxy)phenyl)-N-(piperidin-4-yl)-1H-indazol-3-amine [Example 95] | 2.4 | –
2 | CN(CCCN)CCCNc1cc(-c2ccc(N3CCNCC3)cc2)nc(-c2ccc(N3CCNCC3)cc2)c1 [Example 1] | 0.02 | –
3 | COc1ccc(-c2cc(NCCCN(C)CCCN)cc(-c3ccc(N4CCNCC4)cc3)n2)cc1 [Example 2, N-{3-[(3-aminopropyl)(methyl)amino]propyl}-2-(4-methoxyphenyl)-6-[4-(piperazin-1-yl)phenyl]pyridin-4-amine] | 0.03 | –
4 | COc1ccc(-c2cc(NC3CCN(C4CCC(N)CC4)CC3)cc(-c3ccc(N4CCNCC4)cc3)n2)cc1 (stereo not shown) [Example 3] | 0.03 | increase in potency versus Compound I (average) (same alpha-screen assay using bt-TAR32, side-by-side, three independent assays, average): 14 X; increase in potency versus Compound I (same alpha-screen assay using bt-TAR32, side-by-side, three independent assays, range): 11-18 X
5 | CN(CCCN)CCCNc1cc(-c2ccc(N3CCNCC3)cc2)nc(-c2ccc(N3CCNCC3)nc2)c1 [Example 4] | 0.04 | –
6 | COc1ccc(-c2cc(NC3CCN(CCCN)CC3)cc(-c3ccc(N4CCN(C)CC4)cc3)n2)cc1 [Example 5, N-(1-(3-aminopropyl)piperidin-4-yl)-2-(4-methoxyphenyl)-6-(4-(4-methylpiperazin-1-yl)phenyl)pyridin-4-amine] | 0.04 | –
7 | COc1ccc(-c2cc(NCCCNC3CC(N)C3)cc(-c3ccc(N4CCNCC4)cc3)n2)cc1 (stereo not shown) [Example 6] | 0.04 | –
8 | COc1ccc(-c2cc(NCCCN(C)CCCN)cc(-c3cccc(N4CCNCC4)c3)n2)cc1 [Example 7, N-{3-[(3-aminopropyl)(methyl)amino]propyl}-2-(4-methoxyphenyl)-6-[3-(piperazin-1-yl)phenyl]pyridin-4-amine] | 0.05 | –
9 | CN(CCCN)CCCNc1cc(-c2ccc(C3CCNCC3)cc2)nc(-c2ccc(N3CCNCC3)cc2)c1 [Example 8] | 0.05 | –
10 | COc1ccc(-c2cc(NC3CCNCC3)cc(-c3ccc(N4CCN(C)CC4)cc3)n2)cc1 [Example 9, 2-(4-methoxyphenyl)-6-(4-(4-methylpiperazin-1-yl)phenyl)-N-(piperidin-4-yl)pyridin-4-amine] | 0.05 | –
11 | COc1ccc(-c2cc(NCCCN(C)CCCN)cc(-c3ccc(N4CCN(CC5CC5)CC4)cc3)n2)cc1 [Example 10] | 0.06 | –
12 | CN(CCCN)CCCNc1cc(C#CC2CCNCC2)nc(-c2ccc(N3CCNCC3)cc2)c1 [Example 11, N-{3-[(3-aminopropyl)(methyl)amino]propyl}-2-[4-(piperazin-1-yl)phenyl]-6-[2-(piperidin-4-yl)ethynyl]pyridin-4-amine] | 0.06 | –
13 | COc1ccc(-c2cc(NC3CCN(CC4CNC4)CC3)cc(-c3ccc(N4CCN(C)CC4)cc3)n2)cc1 [Example 12, N-(1-(azetidin-3-ylmethyl)piperidin-4-yl)-2-(4-methoxyphenyl)-6-(4-(4-methylpiperazin-1-yl)phenyl)pyridin-4-amine] | 0.06 | –
14 | COc1ccc(-c2cc(NCCCN(C)CCCN)cc(-c3cnn(C4CCN(C)CC4)c3)n2)cc1 [Example 13, N-{3-[(3-aminopropyl)(methyl)amino]propyl}-2-(4-methoxyphenyl)-6-[1-(1-methylpiperidin-4-yl)-1H-pyrazol-4-yl]pyridin-4-amine] | 0.065 | –
15 | COc1ccc(-c2cc(NCCCN(C)CCCN)cc(-c3ccc(N4CCN(CC5CNC5)CC4)cc3)n2)cc1 [Example 14] | 0.07 | –
16 | CN(CCCN)CCCNc1cc(-c2ccc(CN3CCNCC3)cc2)nc(-c2ccc(N3CCNCC3)cc2)c1 [Example 16] | 0.07 | –
17 | COc1ccc(-c2cc(NCCCN3CCC(CN)CC3)cc(-c3ccc(N4CCNCC4)cc3)n2)cc1 [Example 18] | 0.07 | –
18 | CNc1ccc(-c2cc(NCCCN(C)CCCN)cc(-c3ccc(OC)cc3)n2)cc1 [Example 19] | 0.08 | –
19 | COc1ccc(-c2cc(NCCCN(C)CCCN)cc(-c3ccc(CN4CCNCC4)cc3)n2)cc1 [Example 20] | 0.08 | –
20 | COc1ccc(-c2cc(NCC3CCN(CC4CCNC4)C3)cc(-c3ccc(N4CCN(C)CC4)cc3)n2)cc1 (stereo not shown) [Example 21] | 0.08 | –
21 | COc1ccc(-c2cc(NCC3CCN(C4CCNCC4)C3)cc(-c3ccc(N4CCN(C)CC4)cc3)n2)cc1 (stereo not shown) [Example 22] | 0.08 | –
22 | COc1ccc(-c2cc(NCCCN(C)CCCN)cc(-c3ccc(N4CCN(C)CC4)cc3)n2)cc1 [Example 23] | 0.08 | –
23 | COc1ccc(-c2cc(NCCCN(C)CCCN)cc(-c3ccc(CN4CCCC4)cc3)n2)cc1 [Example 24] | 0.09 | –
24 | COc1ccc(-c2cc(NCC3CCN(CC4CCNC4)CC3)cc(-c3ccc(N4CCN(C)CC4)cc3)n2)cc1 (stereo not shown) [Example 25] | 0.09 | –
25 | COc1ccc(-c2cc(NCCCN3CCC(CN)C3)cc(-c3ccc(N4CCNCC4)cc3)n2)cc1 (stereo not shown) [Example 26] | 0.1 | –

Continued, in another order:

Row | IC50 [µM] | Molecule | also measured
26 | 0.11 | COc1ccc(-c2cc(NC3CCN(C4CCN(C)CC4)CC3)cc(-c3ccc(N4CCNCC4)cc3)n2)cc1 [Example 27, N-(2-(4-methoxyphenyl)-6-(4-(piperazin-1-yl)phenyl)pyridin-4-yl)-1′-methyl-[1,4′-bipiperidin]-4-amine] | –
27 | 0.11 | CN(CCCN)CCCNc1cc(-c2ccc(N3CCNCC3)cc2)nc(-c2ccc3c(c2)CCNC3)c1 [Example 28] | –
28 | 0.11 | COc1ccc(-c2cc(NCC3CCN(CC4CNC4)CC3)cc(-c3ccc(N4CCN(C)CC4)cc3)n2)cc1 [Example 29] | –
29 | 0.12 | COc1ccc(-c2cc(NC3CCN(CC4CCNC4)CC3)cc(-c3ccc(N4CCNCC4)cc3)n2)cc1 (stereo not shown) [Example 30] | –
30 | 0.12 | COc1ccc(-c2cc(NCCCN)cc(-c3ccc(N4CCNCC4)cc3)n2)cc1 [Example 31, N^1-(2-(4-methoxyphenyl)-6-(4-(piperazin-1-yl)phenyl)pyridin-4-yl)propane-1,3-diamine] | –
31 | 0.13 | COc1ccc(-c2cc(NCCCN(C)CCCN)cc(-c3ccc(N4CCN(C)CC4)cc3)n2)cc1 [Example 32] | –
32 | 0.13 | COc1ccc(-c2cc(NCCCN(C)CCCN)cc(-c3ccc(-c4ccncc4)cc3)n2)cc1 [Example 33] | –
33 | 0.14 | COc1ccc(-c2cc(NCC3CCN(CC4CNC4)C3)cc(-c3ccc(N4CCN(C)CC4)cc3)n2)cc1 (stereo not shown) [Example 34] | –
34 | 0.15 | COc1ccc(-c2cc(NCCCN(C)CCCN)cc(-c3ccc(OCCCN(C)C)nc3)n2)cc1 [Example 35, N-{3-[(3-aminopropyl)(methyl)amino]propyl}-6′-[3-(dimethylamino)propoxy]-6-(4-methoxyphenyl)-[2,3′-bipyridin]-4-amine] | –
35 | 0.15 | COc1ccc(-c2cc(NC3CCN(C4CCN(C)CC4)CC3)cc(-c3ccc(N4CCNCC4)cc3)n2)cc1 [Example 36] | –
36 | 0.16 | COc1ccc(-c2cc(NCCCN(C)CCCN)cc(OCCN3CCCC3)n2)cc1 [Example 37, N-{3-[(3-aminopropyl)(methyl)amino]propyl}-2-(4-methoxyphenyl)-6-[2-(pyrrolidin-1-yl)ethoxy]pyridin-4-amine] | –
37 | 0.17 | COc1ccc(-c2cc(NCCCN(C)CCCN)cc(-c3ccc(N4CCN(C(=O)OC(C)(C)C)CC4)cc3)n2)cc1 [Example 38] | –
38 | 0.19 | COc1ccc(-c2cc(NC3CCNCC3)cc(-c3ccc(N4CCNCC4)cc3)n2)cc1 [Example 39] | –
39 | 0.21 | COc1ccc(-c2cc(NCCCN(C)C)cc(-c3ccc(N4CCN(C)CC4)cc3)n2)cc1 [Example 40] | –
40 | 0.33 | COc1ccc(-c2cc(N(C)C3CCNCC3)cc(-c3ccc(N4CCNCC4)cc3)n2)cc1 [Example 41] | –
41 | 0.46 | COc1ccc(-c2cc(N(C)CCCN(C)C)cc(-c3ccc(N4CCN(C)CC4)cc3)n2)cc1 [Example 42, N-(3-(dimethylamino)propyl)-2-(4-methoxyphenyl)-N-methyl-6-(4-(4-methylpiperazin-1-yl)phenyl)pyridin-4-amine] | –
42 | 0.46 | COc1ccc(-c2cc(NCCCN)cc(-n3cc4c(n3)CNC4)n2)cc1 [Example 43] | –

Row | IC50 [µM] | Molecule | also measured
43 | 7.95 | CN(C)CCCNc1cc(-c2ccc(N3CCNCC3)cc2)nc(-c2ccc(N3CCCC3)nc2)c1 [Example 44] | –
44 | 1.07 | CN1CCN(c2cncc(-c3cc(NCCCN)cc(-c4ccc(N5CCNCC5)cc4)n3)c2)CC1 [Example 45] | –
45 | 6.93 | COc1ccc(-c2cc(NCCCN3CCCCC3)cc(-c3cc(OC)cc(OC)c3)n2)cc1 [Example 46] | –
46 | 4.64 | COc1ccc(-c2cc(NCCCN(C)CCCN)cc(-c3c(C)noc3C)n2)cc1 [Example 47] | –
47 | 3.77 | COc1ccc(-c2cc(NCCCc3cnc[nH]3)cc(-c3ccc(N4CCN(C)CC4)cc3)n2)cc1 [Example 48] | –
48 | 9.49 | CCOC(=O)N1CCC(Nc2cc(-c3ccc(OC)cc3)nc(-c3ccc(N4CCNCC4)cc3)c2)CC1 [Example 50] | –
49 | 0.64 | COc1cccc(-c2cc(NCCCN(C)CCCN)cc(-c3ccc(N4CCNCC4)cc3)n2)c1 [Example 51] | –
50 | 5.58 | COc1ccc(-c2cc(NCCCN(C)CCCN)cc(-c3cnc(N4CCOCC4)s3)n2)cc1 [Example 52, N^1-(3-aminopropyl)-N^3-(2-(4-methoxyphenyl)-6-(2-morpholinothiazol-5-yl)pyridin-4-yl)-N^1-methylpropane-1,3-diamine] | –
51 | 4.17 | CNS(=O)(=O)c1ccc(-c2cc(NCCCN(C)CCCN)cc(-c3ccc(OC)cc3)n2)cc1 [Example 53] | –
52 | 3.56 | COc1ccc(-c2cc(NC3(CCN)CC3)cc(-c3ccc(N4CCNCC4)cc3)n2)cc1 [Example 54] | –
53 | 3.56 | COc1ccc(-c2cc(NCC3CCNC3)cc(-c3ccc(N4CCN(C)CC4)cc3)n2)cc1 (stereo not shown) [Example 55] | –
54 | 3.24 | COc1ccc(-c2cc(NCC3CN(C)CCO3)cc(-c3ccc(N4CCN(C)CC4)cc3)n2)cc1 (stereo not shown) [Example 56] | –
55 | 2.85 | COc1ccc(-c2cc(NCC3CCCN3)cc(-c3ccc(N4CCC(C)CC4)cc3)n2)cc1 (stereo not shown) [Example 57] | –
56 | 2.85 | COc1ccc(-c2cc(NC3CC4CCC(C3)N4C)cc(-c3ccc(N4CCN(C)CC4)cc3)n2)cc1 (stereo not shown) [Example 58] | –
57 | 2.04 | COc1ccc(-c2cc(NCCCN(C)C)cc(-c3ccc(N4CCOCC4)cc3)n2)cc1 [Example 59] | –
58 | 11 | COc1ccc(-c2cc(NC3CCNCC3(F)F)cc(-c3ccc(N4CCN(C)CC4)cc3)n2)cc1 (stereo not shown) [Example 60] | –
59 | 1.87 | COc1ccc(-c2cc(NCCCN3CCCCC3)cc(C3=CCNCC3)n2)cc1 [Example 61] | –

From patent US20240148722A1, “SMALL MOLECULES THAT BIND TO TDP-43 FOR THE TREATMENT OF ALS AND RELATED DISORDERS” (Biohaven Therapeutics Ltd., priority 2021, published 2024)
